Our source for the Kd values is patent US20250186541A1, “DLL3 TARGETING PEPTIDES AND CONSTRUCTS THEREOF” (MARIANA ONCOLOGY INC., priority 2023, published 2025).

Numbered stars: 1 amine (or outer) side, 2 acyl side, 3 side chain; on linkers, the order of the positions; unused ones are H or OH. Bridge positions count the residues as written; N and C are the ends. Square brackets hold non-standard residues; d marks the D form. Triazole bridges read from a SMILES are 1,4-linked. Peptide text beside a SMILES is read from it. * marks the point of attachment. Ala(piperidin-4-yl) = O=C([C@H](CC1CCN([*:3])CC1)N[*:1])[*:2]; DOTA = O=C(O)CN1CCN(CC(=O)O)CCN(CC(=O)*)CCN(CC(=O)O)CC1; 1Nal = N[C@@H](Cc1cccc2ccccc12)C(=O)O; 2Nal = N[C@@H](Cc1ccc2ccccc2c1)C(=O)O; Phe(2-Me) = Cc1ccccc1C[C@H](N)C(=O)O; Aha = [N-]=[N+]=NCC[C@H](N)C(=O)O; tBuAla = CC(C)(C)C[C@H](N)C(=O)O; AllylGly = C=CC[C@H](N)C(=O)O; αMeP = C[C@@]1(C(=O)O)CCCN1; Pra = C#CC[C@H](N)C(=O)O; Dap = NC[C@H](N)C(=O)O Where only a bound is given, the exact number is not on record here.

For the test, the target named is T1, human DLL3 (Homo sapiens, UniProt Q9NYJ7).
T1 construct: biotin (biotinylated)
T1 sequence (Q9NYJ7 27-618): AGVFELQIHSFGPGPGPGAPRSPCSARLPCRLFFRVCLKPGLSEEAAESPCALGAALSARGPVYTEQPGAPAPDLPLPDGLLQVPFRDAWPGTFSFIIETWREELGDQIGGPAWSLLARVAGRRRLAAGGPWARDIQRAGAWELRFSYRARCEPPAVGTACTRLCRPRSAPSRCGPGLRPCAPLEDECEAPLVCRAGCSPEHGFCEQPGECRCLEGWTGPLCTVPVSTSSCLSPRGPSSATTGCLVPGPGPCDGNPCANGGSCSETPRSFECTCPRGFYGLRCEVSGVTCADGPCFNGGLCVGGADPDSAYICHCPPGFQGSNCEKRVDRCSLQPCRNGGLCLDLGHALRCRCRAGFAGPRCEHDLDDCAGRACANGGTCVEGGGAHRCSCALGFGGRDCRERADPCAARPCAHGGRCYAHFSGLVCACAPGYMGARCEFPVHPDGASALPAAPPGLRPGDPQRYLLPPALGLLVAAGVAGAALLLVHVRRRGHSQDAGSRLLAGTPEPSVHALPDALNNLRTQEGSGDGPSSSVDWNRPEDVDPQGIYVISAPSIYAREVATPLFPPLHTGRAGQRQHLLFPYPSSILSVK
Description: Affinity determination by Surface Plasmon Resonance (SPR), Biacore, 1:1 binding model. To be noted: biotinylated human DLL3 on streptavidin chip, 25° C.; NB = nonbinding. The protocol: Example 3. Binding Affinity of Targeting Moieties Polypeptides to DLL3 Affinity Determination by Surface Plasmon Resonance (SPR)
SPR studies were performed on the compounds disclosed herein using the following protocol. […] Biotinylated target ligand human DLL3 was immobilized on a streptavidin sensor chip. A reference surface was set up for nonspecific binding and refractive index changes. For analysis of the kinetics of interactions, varying concentrations of samples were injected at a flow rate of 100 μL/min using running buffer containing 20 mM phosphate buffer with 2.7 mM KCl, 137 mM NaCl, 0.05% Surfactant P20 and 2% DMSO. Sensorgram curves were fitted with 1:1 binding model, and affinity and kinetic parameters were obtained using Biacore Insight evaluation 4.0. software.
`CC(=O)N[C@H](C)C(=O)N[C@@H](CO)C(=O)N[C@@H](CC(=O)O)C(=O)N[C@H]1CSSC[C@@H](C(=O)N2CCC[C@@]2(C)C(=O)N[C@@H](Cc2ccccc2)C(=O)N[C@@H](CC(=O)O)C(N)=O)NC(=O)[C@H](CC(N)=O)NC(=O)[C@H](Cc2ccc3ccccc3c2)NC(=O)[C@H](CC2CCN(C(=O)CN3CCN(CC(=O)O)CCN(CC(=O)O)CCN(CC(=O)O)CC3)CC2)NC(=O)[C@H](CC(C)(C)C)NC(=O)[C@H](Cc2cccc3ccccc23)NC1=O` [Cpd #157, Ac-(D-Ala)-S-D-C(3)-(1Nal)-(t-Bu-Ala)-[3-(4-piperidinyl-DOTA)-Ala]-(2Nal)-N-C(3)-(aMe-P)-F -D-CONH2] (Ac-[dA]SDC[1Nal][tBuAla][Ala(piperidin-4-yl)](DOTA)[2Nal]NC[αMeP]FD-NH2; disulfide 4-10) registered a Kd of 0.18 nM. Turning to `CC(=O)N[C@H](C)C(=O)N[C@@H](CO)C(=O)N[C@@H](CC(=O)O)C(=O)N[C@H]1CCC(=O)NC[C@@H](C(=O)N2CCC[C@@]2(C)C(=O)N[C@@H](Cc2ccccc2C)C(=O)N[C@@H](CC(=O)O)C(=O)N[C@H](CCCCNC(=O)CN2CCN(CC(=O)O)CCN(CC(=O)O)CCN(CC(=O)O)CC2)C(N)=O)NC(=O)[C@H](CC(N)=O)NC(=O)[C@H](Cc2ccc3ccccc3c2)NC(=O)[C@H](CCC(N)=O)NC(=O)[C@H](CC(C)(C)C)NC(=O)[C@H](Cc2cccc3ccccc23)NC1=O` [Cpd #160, Ac-(D-Ala)-S-D-Glu(2)-(1Nal)-(t-Bu-Ala)-Q-(2Nal)-N-Dap(2)-(aMe-P)-(2Me-F)-D-D-Lys(DOTA)-CONH2] (Ac-[dA]SDE[1Nal][tBuAla]Q[2Nal]N[Dap][αMeP][Phe(2-Me)]D[dK](DOTA)-NH2; lactam 4-10), the dissociation constant (Kd) was greater than 300 nM. As for `CC(=O)N[C@H](C)C(=O)N[C@@H](CO)C(=O)N[C@@H](CC(=O)O)C(=O)N[C@H]1Cc2cn(nn2)CC[C@@H](C(=O)N2CCC[C@@]2(C)C(=O)N[C@@H](Cc2ccccc2)C(=O)N[C@@H](CC(=O)O)C(=O)N[C@H](CCCCNC(=O)CN2CCN(CC(=O)O)CCN(CC(=O)O)CCN(CC(=O)O)CC2)C(N)=O)NC(=O)[C@H](CC(N)=O)NC(=O)[C@H](Cc2ccc3ccccc3c2)NC(=O)[C@H](CCC(N)=O)NC(=O)[C@H](CC(C)(C)C)NC(=O)[C@H](Cc2cccc3ccccc23)NC1=O` [Cpd #163, Ac-(D-Ala)-S-D-[Pra(5)]-(1Nal)-(t-Bu-Ala)-Q-(2Nal)-N-[DabN3(5)]-(aMe-P)-F -D-D-Lys(DOTA)-CONH2] (Ac-[dA]SD[Pra][1Nal][tBuAla]Q[2Nal]N[Aha][αMeP]FD[dK](DOTA)-NH2; triazole 4-10), the figure is greater than 300 nM; as for `CC(=O)N[C@H](C)C(=O)N[C@@H](CO)C(=O)N[C@@H](CC(=O)O)C(=O)N[C@H]1Cc2cnnn2CC[C@@H](C(=O)N2CCC[C@@]2(C)C(=O)N[C@@H](Cc2ccccc2)C(=O)N[C@@H](CC(=O)O)C(=O)N[C@H](CCCCNC(=O)CN2CCN(CC(=O)O)CCN(CC(=O)O)CCN(CC(=O)O)CC2)C(N)=O)NC(=O)[C@H](CC(N)=O)NC(=O)[C@H](Cc2ccc3ccccc3c2)NC(=O)[C@H](CCC(N)=O)NC(=O)[C@H](CC(C)(C)C)NC(=O)[C@H](Cc2cccc3ccccc23)NC1=O` [Cpd #164, Ac-(D-Ala)-S-D-[Pra(6)]-(1Nal)-(t-Bu-Ala)-Q-(2Nal)-N-[DabN3(6)]-(aMe-P)-F -D-D-Lys(DOTA)-CONH2], greater than 30 nM. As for `C[C@@H](NC(=O)CN1CCN(CC(=O)O)CCN(CC(=O)O)CCN(CC(=O)O)CC1)C(=O)N[C@@H](CO)C(=O)N[C@@H](CC(=O)O)C(=O)N[C@H]1C/C=C/C[C@@H](C(=O)N2CCC[C@@]2(C)C(=O)N[C@@H](Cc2ccccc2)C(=O)N[C@@H](CC(=O)O)C(N)=O)NC(=O)[C@H](CC(N)=O)NC(=O)[C@H](Cc2ccc3ccccc3c2)NC(=O)[C@H](CC2CCNCC2)NC(=O)[C@H](CC(C)(C)C)NC(=O)[C@H](Cc2cccc3ccccc23)NC1=O` [Cpd #196, DOTA-(D-Ala)-S-D-AllyG(4)-(1Nal)-(t-Bu-Ala)-[3-(4-piperidinyl)-Ala]-(2Nal)-N-AllyG(4)-(aMe-P)-F-D-CONH2] ({DOTA}-[dA]SD[AllylGly][1Nal][tBuAla][Ala(piperidin-4-yl)][2Nal]N[AllylGly][αMeP]FD-NH2; staple (E) 4-10), the figure is 0.52 nM; as for `CC(=O)N[C@H](C)C(=O)N[C@@H](CO)C(=O)N[C@@](C)(CC(=O)O)C(=O)N[C@H]1CCCC[C@@H](C(=O)N2CCC[C@@]2(C)C(=O)N[C@@H](Cc2ccccc2)C(=O)N[C@@H](CC(=O)O)C(N)=O)NC(=O)[C@H](CC(N)=O)NC(=O)[C@H](Cc2ccc3ccccc3c2)NC(=O)[C@H](Cc2ccc(CNC(=O)CN3CCN(CC(=O)O)CCN(CC(=O)O)CCN(CC(=O)O)CC3)cc2)NC(=O)[C@H](CC(C)(C)C)NC(=O)[C@H](Cc2cccc3ccccc23)NC1=O` [Cpd #205, Ac-(D-Ala)-S-(aMe-Asp)-AllyG(4)*-(1Nal)-(t-Bu-Ala)-[PAF(DOTA)]-(2Nal)-N-AllyG(4)*-(aMe-P)-F-D-CONH2], 0.082 nM; as for `CC(=O)N[C@@H](CO)C(=O)N[C@@H](CC(=O)O)C(=O)N[C@H]1CSSC[C@@H](C(=O)N2CCC[C@H]2C(=O)N[C@@H](Cc2ccccc2)C(=O)N[C@@H](CC(=O)O)C(N)=O)NC(=O)[C@H](CC(N)=O)NC(=O)[C@H](Cc2c[nH]c3ccccc23)NC(=O)[C@H](CCC(N)=O)NC(=O)[C@H](CC(C)C)NC(=O)[C@H](Cc2c[nH]c3ccccc23)NC1=O` [compound 5, Ac-S-D-C(3)-W-L-Q-W-N-C(3)-P-F-D-CONH2] (Ac-SDCWLQWNCPFD-NH2; disulfide 3-9), greater than 100 nM. `CSCC[C@H](NC(C)=O)C(=O)N[C@@H](CO)C(=O)N[C@@H](CC(=O)O)C(=O)N[C@H]1CSSC[C@@H](C(=O)N2CCC[C@H]2C(=O)N[C@@H](Cc2ccccc2)C(=O)N[C@@H](CC(=O)O)C(N)=O)NC(=O)[C@H](CC(N)=O)NC(=O)[C@H](Cc2c[nH]c3ccccc23)NC(=O)[C@H](CCC(N)=O)NC(=O)[C@H](CC(C)C)NC(=O)[C@@H](C)NC1=O` [compound 11, Ac-M-S-D-C(3)-(D-Ala)-L-Q-W-N-C(3)-P-F-D-CONH2] (Ac-MSDC[dA]LQWNCPFD-NH2; disulfide 4-10) yielded a dissociation constant Kd greater than 100 nM. As for `CSCC[C@H](NC(C)=O)C(=O)N[C@@H](CO)C(=O)N[C@@H](CC(=O)O)C(=O)N[C@H]1CSSC[C@@H](C(=O)N2CCC[C@H]2C(=O)N[C@@H](Cc2ccccc2)C(=O)N[C@@H](CC(=O)O)C(N)=O)NC(=O)[C@H](CC(N)=O)NC(=O)[C@H](Cc2c[nH]c3ccccc23)NC(=O)[C@@H](C)NC(=O)[C@H](CC(C)C)NC(=O)[C@H](Cc2c[nH]c3ccccc23)NC1=O` [compound 13, Ac-M-S-D-C(3)-W-L-(D-Ala)-W-N-C(3)-P-F-D-CONH2] (Ac-MSDCWL[dA]WNCPFD-NH2; disulfide 4-10), the figure is greater than 100 nM; as for `CSCC[C@H](NC(C)=O)C(=O)N[C@@H](CO)C(=O)N[C@@H](CC(=O)O)C(=O)N[C@H]1CSSC[C@@H](C(=O)N2CCC[C@H]2C(=O)N[C@@H](Cc2ccccc2)C(=O)N[C@@H](CC(=O)O)C(N)=O)NC(=O)[C@@H](C)NC(=O)[C@H](Cc2c[nH]c3ccccc23)NC(=O)[C@H](CCC(N)=O)NC(=O)[C@H](CC(C)C)NC(=O)[C@H](Cc2c[nH]c3ccccc23)NC1=O` [compound 15, Ac-M-S-D-C(3)-W-L-Q-W-(D-Ala)-C(3)-P-F-D-CONH2] (Ac-MSDCWLQW[dA]CPFD-NH2; disulfide 4-10), greater than 100 nM.
